Measurements: patent US9102669B2, “Substituted piperidinyl-pyridazinyl derivatives useful as SCD 1 inhibitors” (Janssen Pharmaceutica NV, priority 2011, dated 2015)
Several values for one entry are separate records, joined by “and”; a condition that tells them apart may be missing. Equal entries are not always repeated.

Assays:
[1] = biological target: SCD1 (Rattus norvegicus (Rat), UniProt P07308); experiment: SCD1 enzymatic assay in rat liver microsomes (RLM); format: biochemical; conditions: rat liver microsomes; for inhibition at 1 µM: 1 μM test compound, read-out: % Inh.@ 1 μM
Chain of SCD1 (Rattus norvegicus (Rat), UniProt P07308) (P07308 whole entry): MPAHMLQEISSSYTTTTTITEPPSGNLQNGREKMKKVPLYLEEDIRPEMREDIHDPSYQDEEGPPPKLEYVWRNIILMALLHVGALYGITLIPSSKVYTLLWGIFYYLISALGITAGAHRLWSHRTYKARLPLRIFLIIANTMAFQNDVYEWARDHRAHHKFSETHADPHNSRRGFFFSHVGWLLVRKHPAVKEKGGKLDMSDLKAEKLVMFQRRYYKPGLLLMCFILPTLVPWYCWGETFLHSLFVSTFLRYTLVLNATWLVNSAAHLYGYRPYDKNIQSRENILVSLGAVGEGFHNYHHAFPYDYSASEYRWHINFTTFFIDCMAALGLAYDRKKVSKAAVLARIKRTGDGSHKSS
Method: Step 1: Preparation of Rat Liver Microsome (RLM):
Sprague Dawley rats from Charles River (200-225 g) underwent 2-cycle of fast-re-feeding (24-hour fast followed by 24-hour feeding with fat-free high carbohydrate diet, Reseach Diet, D00042802). The livers were removed and homogenized 1:4 (w/v) with pre-chilled, homogenizing buffer (10 mM Tris-HCl, 0.25 M sucrose, 1 mM EDTA, pH 7.4, supplemented with protease inhibitor cocktail). The homogenate was spun at 12,000×g for 15 min at 4° C. The supernatant was then re-centrifuged at 100,000×g for 60 min at 4° C. The pellet was re-suspended in 2 ml pre-chilled […] potassium phosphate buffer, pH 7.2, 10 mM EDTA at a concentration of 20 mg/ml. The resulting rat liver microsome (RLM) preparation was stored at −80° C.
Step 2: SCD1 Enzymatic Assay in RLM:
The SCD1 enzymatic assay was done in a volume of 50 μL using 10 μg of RLM (prepared as described above) in a 96-well polypropylene plate (enzyme reaction buffer contains 0.1 M K-Phosphate Buffer, 10 mM ATP, 6 mM MgCl2. 1 mM CoA, 1 mM β-NADH, 1.6 mM L-glutathione, 20 μM Stearoyl-CoA). Stearoyl-[9,10-^3H]-CoA (ARC-0390, 1 mCi/mL, 60 Ci/mmol,) was added at a final concentration of 2 μCi/mL. Test compound was then added to the reaction mixture at the selected concentration. After incubation at room temperature for 2 hours, 5 μL 1 N HCl was added to stop the reaction, followed by addition of 25 μL of 10% charcoal. The reaction mixture was then transferred to 96-well Multiscreen plate (Millipore, Cat#MSFCN6B50). […] The measured cpm values were fitted with Sigmoidal dose-response curve fit with Graphpad Prism.

[2] = biological target: SCD1 (Homo sapiens (Human), UniProt O00767); experiment: SCD1 13C-palmitic acid assay in A431 cells; format: cell-based; conditions: read-out: A431 cells 13C-PA IC50
Chain of SCD1 (Homo sapiens (Human), UniProt O00767) (O00767 whole entry): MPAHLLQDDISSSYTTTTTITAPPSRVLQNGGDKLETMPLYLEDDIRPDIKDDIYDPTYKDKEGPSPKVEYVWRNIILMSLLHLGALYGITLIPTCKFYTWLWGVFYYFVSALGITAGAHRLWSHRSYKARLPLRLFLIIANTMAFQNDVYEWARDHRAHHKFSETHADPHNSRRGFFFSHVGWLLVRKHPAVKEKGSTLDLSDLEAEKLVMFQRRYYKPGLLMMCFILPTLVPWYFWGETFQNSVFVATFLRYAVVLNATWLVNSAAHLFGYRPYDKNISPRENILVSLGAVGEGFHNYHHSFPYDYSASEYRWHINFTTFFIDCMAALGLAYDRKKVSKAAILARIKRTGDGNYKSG
Method: Human epithelial carcinoma A431 cells were seeded at 100,000 cells/well in complete growth medium (DMEM, Cellgro#10-013-CM, 4.5 g/L glucose, 10% FBS) in the presence of 0.05 mg/mL human insulin (Hannas Pharmaceutical Supply Co Inc, Humanlin 100 U/ml, 4 mg/ml) in 96-well tissue culture plate. 24 hr later, the cells were washed extensively with Assay Buffer (DMEM, Cellgro#10-013-CM, 4.5 g/L glucose, supplemented with 0.05 mg/mL Human Insulin and 0.1% Fatty Acid Free BSA). […] The cells were then returned to the tissue culture incubator (37° C. and 5% CO2) for 4 hrs. At the end of incubation, the cells were washed three times with 200 μL/well Hanks buffer (HBSS) and then stored at −20° C. until extraction.
For fatty acid extraction, after thawing out the plates, 40 μL of 1N KOH (containing 5 μM of internal standard 7,7,8,8-D4 palmitate) was added to each well and cell plates were incubated at 37° C. for 30 minutes. […] Acetonitrile (100 μL) was then added to extract fatty acids, followed by centrifugation at 3000 rpm for 10 minutes. 75 μL of extract was then transferred to a new glass vial in a 96-well cluster plate. 5 μL was injected for LC/MS analysis for detection of ^13C-palmitic acid and ^13C-palmitoleic acid. Formation of product ^13C-palmitoleic acid was determined as an index of SCD1 activity.
LC/MS analysis was performed as following. An Agilent 1100 Liquid Chromatographic System (Palo Alto, Calif.) consisting of a binary pump, a degasser and an autosampler was used. Separation of free fatty acids was performed on a Zorbax SB-C8 column (2.1×50 mm, particle size=3.5 μm). An isocratic elution was carried out with 10 mM triethylamine acetate in water: acetonitrile (3:7) at a flow rate of 0.3 mL/min. The column temperature was set at 30° C. and the sample injection volume was 5 μL. The LC run cycle was 4 min. A Micromass triple-quadrupole Quattro Micro mass […] (Waters, Beverly, Mass.) was interfaced with the LC system through a Z-spray electrospray ion source and was operated in the negative ion mode. Nitrogen was used as nebulizing gas, desolvation gas and cone curtain gas and argon was chosen as collision gas. The triple quadrupole MS source parameters were set as follows: capillary voltage, 3200V; cone voltage, 25V; exctractor 2V; source temperature, 120° C.; desolvation temperature, 300° C.; cone gas flow, 50 L/h; and desolvation gas flow, 700 L/h. […] MassLynx software version 4.0 was used for system control and data processing. The signal of U-^13C-palmitoleic acid was normalized to an internal standard.

COc1ncc(-c2ccc(N3CCC(c4noc5ccc(F)cc45)CC3)nn2)cn1 [compound 34, 5-fluoro-3-(1-(6-(2-methoxypyrimidin-5-yl)pyridazin-3-yl)piperidin-4-yl)benzo[d]isoxazole]
inhibition at 1 µM [1]: 75% | IC50 [1]: 95 nM | IC50 [2]: 17 nM

OCc1ccc(-c2ccc(N3CCC(c4noc5ccc(F)cc45)CC3)nn2)cn1 [compound 35, (5-(6-(4-(5-fluorobenzo[d]isoxazol-3-yl)piperidin-1-yl)pyridazin-3-yl)pyridin-2-yl)methanol]
inhibition at 1 µM [1]: 99% | IC50 [1]: 8 nM | IC50 [2]: 2 nM

COc1ncc(-c2ccc(N3CCC(N4CCc5ccc(F)cc54)CC3)nn2)cn1 [compound 38, 6-fluoro-1-(1-(6-(2-methoxypyrimidin-5-yl)pyridazin-3-yl)piperidin-4-yl)indoline]
inhibition at 1 µM [1]: 97% | IC50 [1]: 11 nM | IC50 [2]: 34 nM

Cn1cc(-c2ccc(N3CCC(n4ncc5ccccc54)CC3)nn2)cn1 [compound 40, 1-(1-(6-(1-methyl-1H-pyrazol-4-yl)pyridazin-3-yl)piperidin-4-yl)-1H-indazole]
inhibition at 1 µM [1]: 92% | IC50 [1]: 92 nM | IC50 [2]: 45 nM

CC(=O)Nc1ccc(-c2ccc(N3CCC(N4CCc5ccc(F)cc54)CC3)nn2)cn1 [compound 45, N-(5-(6-(4-(6-fluoroindolin-1-yl)piperidin-1-yl)pyridazin-3-yl)pyridin-2-yl)acetamide]
inhibition at 1 µM [1]: 98% | IC50 [1]: 15 nM | IC50 [2]: 6 nM

CCOC(=O)Cn1cc(-c2ccc(N3CCC(N4CCc5ccc(F)cc54)CC3)nn2)cn1 [compound 50, ethyl 2-(4-(6-(4-(6-fluoroindolin-1-yl)piperidin-1-yl)pyridazin-3-yl)-1H-pyrazol-1-yl)acetate]
inhibition at 1 µM [1]: 93% | IC50 [1]: 31 nM | IC50 [2]: 44 nM

Cn1cc(-c2ccc(N3CCC(n4ncc5c(Cl)cccc54)CC3)nn2)cn1 [compound 61, 4-chloro-1-(1-(6-(1-methyl-1H-pyrazol-4-yl)pyridazin-3-yl)piperidin-4-yl)-1H-indazole]
inhibition at 1 µM [1]: 101% | IC50 [1]: 15 nM | IC50 [2]: 17 nM

NC(=O)Cn1cc(-c2ccc(N3CCC(N4CCc5ccc(F)cc54)CC3)nn2)cn1 [compound 69, 2-(4-(6-(4-(6-fluoroindolin-1-yl)piperidin-1-yl)pyridazin-3-yl)-1H-pyrazol-1-yl)acetamide]
inhibition at 1 µM [1]: 68% | IC50 [1]: 387 nM | IC50 [2]: 559 nM

Cn1cc(-c2ccc(N3CCC(n4ncc5c(F)cccc54)CC3)nn2)cn1 [compound 70, 4-fluoro-1-(1-(6-(1-methyl-1H-pyrazol-4-yl)pyridazin-3-yl)piperidin-4-yl)-1H-indazole]
inhibition at 1 µM [1]: 94% | IC50 [1]: 68 nM | IC50 [2]: 82 nM

Fc1ccc2c(c1)N(C1CCN(c3ccc(-c4cnn(CCN5CCOCC5)c4)nn3)CC1)CC2 [compound 71, 4-(2-(4-(6-(4-(6-fluoroindolin-1-yl)piperidin-1-yl)pyridazin-3-yl)-1H-pyrazol-1-yl)ethyl)morpholine]
inhibition at 1 µM [1]: 71% | IC50 [1]: 275 nM | IC50 [2]: > 1000 nM and 160 nM

Cn1cc(-c2ccc(N3CCC(n4ncc5cc(F)ccc54)CC3)nn2)cn1 [compound 73, 5-fluoro-1-(1-(6-(1-methyl-1H-pyrazol-4-yl)pyridazin-3-yl)piperidin-4-yl)-1H-indazole]
inhibition at 1 µM [1]: 86% | IC50 [1]: 145 nM | IC50 [2]: 262 nM

Cn1cc(-c2ccc(N3CCC(n4ncc5ccc(Cl)cc54)CC3)nn2)cn1 [compound 74, 6-chloro-1-(1-(6-(1-methyl-1H-pyrazol-4-yl)pyridazin-3-yl)piperidin-4-yl)-1H-indazole]
inhibition at 1 µM [1]: 96% | IC50 [1]: 16 nM | IC50 [2]: 22 nM

CCOCCn1cc(-c2ccc(N3CCC(c4noc5ccc(F)cc45)CC3)nn2)cn1 [compound 75, 3-(1-(6-(1-(2-ethoxyethyl)-1H-pyrazol-4-yl)pyridazin-3-yl)piperidin-4-yl)-5-fluorobenzo[d]isoxazole]
inhibition at 1 µM [1]: 98% | IC50 [1]: 21 nM | IC50 [2]: 81 nM

Fc1ccc2c(c1)N(C1CCN(c3ccc(-c4cn[nH]c4)nn3)CC1)CC2 [compound 77, 1-(1-(6-(1H-pyrazol-4-yl)pyridazin-3-yl)piperidin-4-yl)-6-fluoroindoline]
inhibition at 1 µM [1]: 95% | IC50 [1]: 21 nM | IC50 [2]: 20 nM

Cn1cc(-c2ccc(N3CCC(n4ncc5c(C(F)(F)F)cccc54)CC3)nn2)cn1 [compound 80, 1-(1-(6-(1-methyl-1H-pyrazol-4-yl)pyridazin-3-yl)piperidin-4-yl)-4-(trifluoromethyl)-1H-indazole]
inhibition at 1 µM [1]: 74% | IC50 [1]: 52 nM | IC50 [2]: 731 nM

Cn1cc(-c2ccc(N3CCC(n4ncc5ccc(C(F)(F)F)cc54)CC3)nn2)cn1 [compound 81, 1-(1-(6-(1-methyl-1H-pyrazol-4-yl)pyridazin-3-yl)piperidin-4-yl)-6-(trifluoromethyl)-1H-indazole]
inhibition at 1 µM [1]: 96% | IC50 [1]: 8 nM | IC50 [2]: 15 nM

OCCn1cc(-c2ccc(N3CCC(n4ncc5ccc(F)cc54)CC3)nn2)cn1 [compound 82, 2-(4-(6-(4-(6-fluoro-1H-indazo-1-yl)piperidin-1-yl)pyridazin-3-yl)-1H-pyrazol-1-yl)ethanol]
inhibition at 1 µM [1]: 99% | IC50 [1]: 53 nM | IC50 [2]: 96 nM

Cn1cc(-c2ccc(N3CCC(n4nc(Cl)c5ccccc54)CC3)nn2)cn1 [compound 83, 3-chloro-1-(1-(6-(1-methyl-1H-pyrazol-4-yl)pyridazin-3-yl)piperidin-4-yl)-1H-indazole]
inhibition at 1 µM [1]: 102% | IC50 [1]: 6 nM | IC50 [2]: 11 nM

Cc1cnn(-c2ccc(N3CCC(c4noc5ccc(F)cc45)CC3)nn2)c1 [compound 94, 5-fluoro-3-(1-(6-(4-methyl-1H-pyrazol-1-yl)pyridazin-3-yl)piperidin-4-yl)benzo[d]isoxazote]
inhibition at 1 µM [1]: 96% | IC50 [1]: 12 nM | IC50 [2]: 40 nM

OCc1cnn(-c2ccc(N3CCC(c4noc5ccc(F)cc45)CC3)nn2)c1 [compound 95, (1-(6-(4-(5-fluorobenzo[d]isoxazol-3-yl)piperidin-1-yl)pyridazin-3-yl)-1H-pyrazol-4-yl)methanol]
inhibition at 1 µM [1]: 88% | IC50 [1]: 96 nM | IC50 [2]: 62 nM

COCc1cnn(-c2ccc(N3CCC(c4noc5ccc(F)cc45)CC3)nn2)c1 [compound 96, 5-fluoro-3-(1-(6-(4-(methoxymethyl)-1H-pyrazol-1-yl)pyridazin-3-yl)piperidin-4-yl)benzo[d]isoxazole]
inhibition at 1 µM [1]: 98% | IC50 [1]: 8 nM | IC50 [2]: 22 nM

CNCc1cnn(-c2ccc(N3CCC(c4noc5ccc(F)cc45)CC3)nn2)c1 [compound 97, 1-(1-(6-(4-(5-fluorobenzo[d]isoxazol-3-yl)piperidin-1-yl)pyridazin-3-yl)-1H-pyrazol-4-yl)-N-methylmethanamine]
inhibition at 1 µM [1]: 11% | IC50 [2]: > 1000 nM
